Measured values taken from article PMC6211275, “Phosphonate inhibitors of West Nile virus NS2B/NS3 protease” (Journal of Enzyme Inhibition and Medicinal Chemistry, 2018).
Read-outs that look alike come from different tables or passages of the source. Marks after values point to notes of the source that are not given here. Peptide text beside a SMILES is read from it. * marks the point of attachment. Cbz = O=C(OCc1ccccc1)*; PhAc = O=C(Cc1ccccc1)*

Assays:
[1] = system: West Nile virus NS2B/NS3 protease; conditions: cited from earlier work
[2] = system: Dengue and WNV titres; set-up: method as in earlier work; conditions: cell-based assays of virus replication; ref 15 (Behnam et al.); read-out: EC50, reduction of Dengue and WNV titres; cited from earlier work
[3] = molecular target: WNV NS2B/NS3 protease (West Nile virus, UniProt P06935); assay: In vitro NS2B/NS3 protease inhibition (fluorescent substrate Pyr-RTKR-AMC, progress curve method); format: biochemical; conditions: for percent of inhibition: inhibitor 100 µM, after 30 min incubation at 37 °C; for k2/Ki: Table 2, peptide phosphonates; for improvement in inhibitory potency after introduction of P2 Arg and P3 Lys: peptidyl derivative vs. simple Cbz-protected parent phosphonate
Experimental: For the initial screening, Cbz-protected aminophosphonates were assayed in 96 well microplates (Nunc™ F96 MicroWell™ White Polystyrene Plate) in the following protease buffer: 50 mM Tris, 1 mM Chaps, 20% glycerol, pH 8.5. WNV NS2B/NS3 protease (AnaSpec, Liege, Belgium; 20 nM) was pre-incubated with tested inhibitor (100 µM) in the protease buffer at 37 °C for 10 min prior an addition of the fluorescent substrate Pyr-RTKR-AMC (AnaSpec, Liege, Belgium; 20 µM). The progress of the reaction was monitored continuously (λex = 354 nm, λem = 442 nm) at 37 °C on a Spectra Max Gemini XPS spectrofluorometer (Molecular Devices, Sunnyvale, CA) for 30 min. […] In 96 well microplates narrowed concentration of inhibitors and constant substrate concentration (Pyr-RTKR-AMC, C = 20 µM, KM = 59 µM) were prepared. The enzyme solution was added and enzymatic reaction was monitored (Figure S1). Using a model for irreversible inhibition, in which the first order inactivation rate constant kobs is hyperbolic dependent from the inhibitor concentration Ki and k2/Ki values were calculated (equations (1–4) in supplementary material)[29]. Control progress curves in the absence of inhibitor were linear.
The inhibitory activity of the compounds was determined by the progress curve method. First the data from nonlinear progress curves with time dependent inhibitors were fit to eq.1 to obtain the first-order rate constant (kobs):
The second-order rate constants (k2/KI) and (KI)app values were calculated using hyperbolic regression according to equation 3: […]
KI values were calculated according to equation 3: […]

[4] = molecular target: T1, human cathepsin G (Homo sapiens, UniProt P08311); assay: Control proteases inhibition assay, cathepsin G; format: biochemical; conditions: inhibitor concentration 25 μM, after 30 min incubation at 37 °C
T1 construct: purchased Biocentrum, Kraków, Poland
T1 sequence (P08311 21-255): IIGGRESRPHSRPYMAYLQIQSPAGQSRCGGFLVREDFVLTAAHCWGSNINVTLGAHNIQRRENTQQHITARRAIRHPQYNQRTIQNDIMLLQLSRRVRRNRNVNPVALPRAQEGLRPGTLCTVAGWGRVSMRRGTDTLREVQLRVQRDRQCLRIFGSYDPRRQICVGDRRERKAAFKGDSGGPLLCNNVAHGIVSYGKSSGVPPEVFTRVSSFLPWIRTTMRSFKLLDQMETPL
Experimental: (§1) Bovine β-trypsin (AppliChem, Łódź, Poland), human cathepsin G (Biocentrum, Kraków, Poland) and Human Airway Trypsin-like Protease (HAT) (R&D Systems, Minneapolis, MN) were used as control proteases to screen the activity of NS2B/NS3 protease inhibitors (36–39) obtained in this study. Inhibitors were assayed in 96-well microplates in the 0.1 M HEPES, 0.5 M NaCl, 0.03%, pH 7.5 Triton X-100 (for bovine β-trypsin and cathepsin G). Bovine β-trypsin (15 nM), human cathepsin G (150 nM) or HAT protease (0.001 µg) was pre-incubated with tested inhibitor (25 µM) in the protease buffer at 37 °C for 10 min prior to the addition of the fluorescent substrate: Cbz-Arg-AFC (synthesised in-house according to the procedure described by Bissell[30]; 50 µM; λex = 400 nm, λem = 505 nm, for bovine β-trypsin); MeO-Suc-Ala-Ala-Pro-Val-AMC (Bachem, Bubendorf, Switzerland; 40 µM, λex = 340 nm, λem = 440 nm, for human cathepsin G) or Phe-Ser Arg-AMC (Bachem, Bubendorf, Switzerland; 40 µM, λex = 340 nm, λem = 440 nm, for HAT protease). The progress of the reactions was monitored continuously at 37 °C on a Spectra Max Gemini XPS spectrofluorometer for 20 min. Control curves in the absence of inhibitor were linear. The rate of the tested protease inhibition was calculated from the linear range of the plot.

[5] = molecular target: T2, Bovine β-trypsin (Bos taurus, UniProt P00760); assay: Control proteases inhibition assay, trypsin; format: biochemical; conditions: inhibitor concentration 25 μM, after 30 min incubation at 37 °C
T2 construct: purchased AppliChem, Łódź, Poland
T2 sequence (P00760 24-246): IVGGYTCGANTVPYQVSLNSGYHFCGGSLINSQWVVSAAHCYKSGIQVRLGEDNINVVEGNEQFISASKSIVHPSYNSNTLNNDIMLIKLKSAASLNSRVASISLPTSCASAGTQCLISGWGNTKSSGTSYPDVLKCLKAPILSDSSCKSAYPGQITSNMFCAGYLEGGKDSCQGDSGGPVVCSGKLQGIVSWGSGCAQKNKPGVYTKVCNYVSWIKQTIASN
Experimental: as §1

[6] = molecular target: T3, Human Airway Trypsin-like Protease (HAT) (Homo sapiens, UniProt O60235); assay: Control proteases inhibition assay, HAT protease; format: biochemical; conditions: inhibitor concentration 25 μM, after 30 min incubation at 37 °C
T3 construct: purchased R&D Systems, Minneapolis, MN
T3 sequence (O60235 1-418): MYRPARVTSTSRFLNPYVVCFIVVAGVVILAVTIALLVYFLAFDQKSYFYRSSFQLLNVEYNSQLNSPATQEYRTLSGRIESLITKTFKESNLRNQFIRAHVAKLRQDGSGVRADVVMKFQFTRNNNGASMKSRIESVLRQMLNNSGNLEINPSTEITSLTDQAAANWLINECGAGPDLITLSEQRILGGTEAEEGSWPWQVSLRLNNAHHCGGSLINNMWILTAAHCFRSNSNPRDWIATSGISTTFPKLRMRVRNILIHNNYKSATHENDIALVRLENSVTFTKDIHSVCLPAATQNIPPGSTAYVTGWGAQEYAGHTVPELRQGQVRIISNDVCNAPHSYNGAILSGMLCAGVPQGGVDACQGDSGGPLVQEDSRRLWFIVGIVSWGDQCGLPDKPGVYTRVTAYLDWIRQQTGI
Experimental: as §1

[7] = Stability in assay buffer (HPLC analysis); format: physicochemical
Experimental: Stability in assay buffer. A stock solution of compound (38) (10 mM in acetonitrile) was added to the assay buffer (50 mM Tris, 1 mM Chaps, 20% glycerol, pH 8.5) to make a final concentration of 2 mg/mL and incubated at 37°C. The resulting mixture was subjected to HPLC analysis to determine compound stability using a Discovery® BIO Wide Pore C8 HPLC Column (250 mm × 4.6 mm, 10 μm) with a 1 mL/min flow rate, gradient 0−100% [0.05% TFA in acetonitrile] in [0.05% TFA in water] over a period of 15 min.

[8] = tripeptide aldehydes, ref 11 (Stoermer et al.)

WNV NS2B/NS3 protease, sequence (P06935 1502-1680): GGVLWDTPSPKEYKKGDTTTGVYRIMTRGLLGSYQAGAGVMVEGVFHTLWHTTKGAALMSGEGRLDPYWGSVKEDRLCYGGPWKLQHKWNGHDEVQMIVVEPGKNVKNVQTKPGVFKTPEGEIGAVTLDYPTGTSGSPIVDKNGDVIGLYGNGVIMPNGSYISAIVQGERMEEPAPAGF
WNV NS2B/NS3 protease, sequence (P06935 1419-1466): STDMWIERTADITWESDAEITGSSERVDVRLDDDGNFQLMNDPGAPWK

N=C(N)NCCC[C@@H](C=O)NC(=O)[C@H](CCCCN)NC(=O)[C@H](CCCCN)NC(=O)Cc1ccc(-c2ccccc2)cc1 [Compound 1]
Ki [1, 8]: 6 nM

N=C(N)NCCC[C@@H](C=O)NC(=O)[C@H](CCCCN)NC(=O)[C@H](CCCCN)NC(=O)Cc1ccccc1 [Compound 2] (PhAc-Lys-Lys-Arg-aldehyde)
Ki [1, 8]: 9 nM

N=C(N)NC1CCC(CNC(=O)[C@H](CCCCN)NC(=O)[C@H](CCCCN)NC(=O)Cc2ccc(Cl)c(Cl)c2)CC1 (some centres unmarked) [Compound 3]
Ki ([1]; ref 13 (Hammamy et al.)): 130 nM

NCCCC[C@H](NC(=O)c1ccc(/C=C2\SC(=O)N(CC3CCCCC3)C2=O)cc1)C(=O)N[C@@H](CCCCN)C(=O)N[C@H](C(N)=O)c1ccccc1 [Compound 4]
Ki ([1]; ref 14 (Bastos et al.)): 750 nM

N=C(N)NCCC[C@H](Nc1nccs1)C(=O)N[C@@H](CCCCN)C(=O)N[C@H](C(N)=O)c1ccc(OCc2ccc(C(F)(F)F)cc2)cc1 [Compound 5]
EC50 [2]: 15500 nM
Ki ([1]; ref 15 (Behnam et al.)): 39 nM

N=C(N)SCCCC(NC(=O)OCc1ccccc1)P(=O)(Oc1ccccc1)Oc1ccccc1 (centres unmarked) [Compound 8]
percent of inhibition ([3]; substrate Pyr-RTKR-AMC 20 µM): 22%

NC(=O)CCC(NC(=O)OCc1ccccc1)P(=O)(Oc1ccccc1)Oc1ccccc1 (centres unmarked) [Compound 11, Cbz-Gln^P(OPh)2]
percent of inhibition ([3]; substrate Pyr-RTKR-AMC 20 µM): 15%

N#Cc1ccc2cc(C(NC(=O)OCc3ccccc3)P(=O)(Oc3ccccc3)Oc3ccccc3)ccc2c1 (centres unmarked) [Compound 22]
percent of inhibition ([3]; substrate Pyr-RTKR-AMC 20 µM): 2%

N=C(N)c1ccc2cc(C(NC(=O)OCc3ccccc3)P(=O)(Oc3ccccc3)Oc3ccccc3)ccc2c1 (centres unmarked) [Compound 23]
inhibition at 100 µM ([3]; read-out: percent of inhibition): 12%

O=C(NC(c1ccc(-n2cccn2)cc1)P(=O)(Oc1ccccc1)Oc1ccccc1)OCc1ccccc1 (centres unmarked) [Compound 24, Benzyl ((4-(1H-pyrazol-1-yl)phenyl)(diphenoxyphosphoryl)methyl)carbamate]
percent of inhibition ([3]; substrate Pyr-RTKR-AMC 20 µM): 5%

O=C(NC(c1ccc(-n2cnc3ccccc32)cc1)P(=O)(Oc1ccccc1)Oc1ccccc1)OCc1ccccc1 (centres unmarked) [Compound 25]
percent of inhibition ([3]; substrate Pyr-RTKR-AMC 20 µM): 4%

CN1CCN(c2ccc(C(NC(=O)OCc3ccccc3)P(=O)(Oc3ccccc3)Oc3ccccc3)cc2)CC1 (centres unmarked) [Compound 26]
percent of inhibition ([3]; substrate Pyr-RTKR-AMC 20 µM): 3%

O=C(NC(c1ccc(N2CCOCC2)cc1)P(=O)(Oc1ccccc1)Oc1ccccc1)OCc1ccccc1 (centres unmarked) [Compound 27]
percent of inhibition ([3]; substrate Pyr-RTKR-AMC 20 µM): 1%

N=C(N)NCCC[C@H](NC(=O)[C@H](CCCCN)NC(=O)OCc1ccccc1)C(=O)NC(CCCCN)P(=O)(Oc1ccccc1)Oc1ccccc1 (stereo partly drawn) [Compound 36, Cbz-Lys-Arg-Lys^P(OPh)2]
percent of inhibition, CatG [4]: 2%
percent of inhibition, Trypsin [5]: 8%^a
percent of inhibition, HAT [6]: 2%
Ki [3]: 8000 ± 900 nM
k2/Ki ([3]; substrate Pyr-RTKR-AMC 20 µM): 5 520 M^−1s^−1
improvement in inhibitory potency after introduction of P2 Arg and P3 Lys [3]: 69 fold

N=C(N)NCCCC(NC(=O)[C@H](CCCNC(=N)N)NC(=O)[C@H](CCCCN)NC(=O)OCc1ccccc1)P(=O)(Oc1ccccc1)Oc1ccccc1 (stereo partly drawn) [Compound 37, Cbz-Lys-Arg-Arg^P(OPh)2]
percent of inhibition, CatG [4]: 3%
percent of inhibition, Trypsin [5]: 7%
percent of inhibition, HAT [6]: 2%
Ki [3]: 3000 ± 300 nM
k2/Ki ([3]; substrate Pyr-RTKR-AMC 20 µM): 10 725 M^−1s^−1
improvement in inhibitory potency after introduction of P2 Arg and P3 Lys [3]: 69 fold

N=C(N)NCCC[C@@H](NC(=O)[C@@H](CCCCN)NC(=O)OCc1ccccc1)C(=O)NC(Cc1ccc(NC(=N)N)cc1)P(=O)(Oc1ccccc1)Oc1ccccc1 (stereo partly drawn) [Compound 38, Cbz-Lys-Arg-(4-GuPhe)^P(OPh)2]
percent of inhibition, CatG [4]: no significant inhibition
inhibition at 25 µM ([4]; read-out: percent of inhibition, CatG): 7%
percent of inhibition, Trypsin [5]: no significant inhibition
inhibition at 25 µM ([5]; read-out: percent of inhibition, Trypsin): 4%
percent of inhibition, HAT [6]: no significant inhibition
inhibition at 25 µM ([6]; read-out: percent of inhibition, HAT): 5%
inhibitor degradation ([7]; during enzyme inhibition assay time, assay buffer pH 8.5): ~ 1%
degradation of compound ([7]; over 6 hours, assay buffer pH 8.5, 37 °C): ~ 13%
% of initial inhibitor concentration ([7]; time 0.0 h, assay buffer pH 8.5, 37 °C): 100%
% of initial inhibitor concentration ([7]; time 0.5 h, assay buffer pH 8.5, 37 °C): 98,93%
% of initial inhibitor concentration ([7]; time 1.0 h, assay buffer pH 8.5, 37 °C): 98,12%
% of initial inhibitor concentration ([7]; time 1.5 h, assay buffer pH 8.5, 37 °C): 96,27%
% of initial inhibitor concentration ([7]; time 2.0 h, assay buffer pH 8.5, 37 °C): 95,19%
% of initial inhibitor concentration ([7]; time 2.5 h, assay buffer pH 8.5, 37 °C): 95,04%
% of initial inhibitor concentration ([7]; time 3.0 h, assay buffer pH 8.5, 37 °C): 93,35%
% of initial inhibitor concentration ([7]; time 3.5 h, assay buffer pH 8.5, 37 °C): 91,90%
% of initial inhibitor concentration ([7]; time 4.0 h, assay buffer pH 8.5, 37 °C): 91,11%
% of initial inhibitor concentration ([7]; time 4.5 h, assay buffer pH 8.5, 37 °C): 88,43%
% of initial inhibitor concentration ([7]; time 5.0 h, assay buffer pH 8.5, 37 °C): 86,99%
% of initial inhibitor concentration ([7]; time 5.5 h, assay buffer pH 8.5, 37 °C): 86,84%
% of initial inhibitor concentration ([7]; time 6.0 h, assay buffer pH 8.5, 37 °C): 86,73%
Ki [3]: 400 ± 30 nM
kinact/KI ([3]; read-out: k2/Ki): 28300 M⁻¹ s⁻¹

N=C(N)NCCCC(C=O)NC(=O)C(CCCNC(=N)N)NC(=O)C(CCCCN)NC(=O)OCc1ccccc1 (stereo not drawn) [Compound 40, Cbz-Lys-Arg-Arg-H, reference compound] (Cbz-Lys-Arg-Arg-aldehyde; configuration not given here)
Ki ([3]; Table 2, peptide phosphonates and reference aldehyde, substrate Pyr-RTKR-AMC 20 µM, read-out: Ki): 120 ± 20 nM
